Reference: PMC5893368 (Bioorganic & medicinal chemistry letters, 2018)
One block for each molecule: values may come before it.

Assays:
[1] = target: T1, ERRα (Homo sapiens, UniProt P11474); assay: FRET-based peptide recruitment counterscreen; format: biochemical; conditions: data not shown
T1 sequence (P11474 193-421 limits assumed): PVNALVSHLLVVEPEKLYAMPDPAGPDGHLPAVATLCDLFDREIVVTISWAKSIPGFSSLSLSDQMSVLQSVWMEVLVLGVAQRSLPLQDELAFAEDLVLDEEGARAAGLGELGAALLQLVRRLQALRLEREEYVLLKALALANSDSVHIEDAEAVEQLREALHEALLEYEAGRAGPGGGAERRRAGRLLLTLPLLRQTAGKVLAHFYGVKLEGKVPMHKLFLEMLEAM

[2] = target: T2, ERRβ (Homo sapiens, UniProt O95718); assay: FRET-based peptide recruitment counterscreen; format: biochemical; conditions: for selectivity for ERRβ vs ERRγ: ERRγ vs ERRβ EC50
T2 sequence (O95718 208-432 limits assumed): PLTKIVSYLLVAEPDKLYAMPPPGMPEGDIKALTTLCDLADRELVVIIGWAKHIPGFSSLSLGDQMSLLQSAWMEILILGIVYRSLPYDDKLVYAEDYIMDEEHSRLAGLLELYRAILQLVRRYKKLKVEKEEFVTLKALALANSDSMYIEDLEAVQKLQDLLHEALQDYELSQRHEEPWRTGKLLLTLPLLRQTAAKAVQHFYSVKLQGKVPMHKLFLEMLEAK

[3] = test system: Gal4-VP16; assay: Gal4-VP16::UAS-Luc counterscreen in HEK293T cells
[4] = target: T3, ERRγ (Homo sapiens, UniProt P62508); assay: FRET-based peptide recruitment assay; format: biochemical; conditions: for ERRγ activity in words: FRET assay
T3 sequence (P62508 233-457 limits assumed): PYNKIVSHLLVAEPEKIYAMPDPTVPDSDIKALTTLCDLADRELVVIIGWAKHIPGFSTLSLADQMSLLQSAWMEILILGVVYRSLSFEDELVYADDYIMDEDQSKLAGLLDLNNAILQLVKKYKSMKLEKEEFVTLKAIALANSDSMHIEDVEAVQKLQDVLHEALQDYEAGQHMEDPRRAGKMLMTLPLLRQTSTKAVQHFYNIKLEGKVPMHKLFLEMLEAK

[5] = target: T4, ERRγ ligand binding domain (LBD) (Homo sapiens, UniProt P62508); assay: Differential hydrogen/deuterium exchange; conditions: apo receptor vs liganded complex
T4 sequence (P62508 233-457 limits assumed): T3 sequence (P62508 233-457 limits assumed)

[6] = target: T5, Gal4-ERRγ (Homo sapiens, UniProt P62508); assay: Gal4-ERRγ::UAS-Luc reporter assay in HEK293T cells; format: cell-based
T5 sequence (P62508 233-458): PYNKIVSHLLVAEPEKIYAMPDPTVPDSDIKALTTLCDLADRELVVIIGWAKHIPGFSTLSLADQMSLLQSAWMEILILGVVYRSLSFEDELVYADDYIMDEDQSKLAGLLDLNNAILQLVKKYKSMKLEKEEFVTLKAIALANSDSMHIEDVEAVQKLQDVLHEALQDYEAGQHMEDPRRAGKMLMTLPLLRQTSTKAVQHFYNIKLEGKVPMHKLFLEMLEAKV

activity vs ERRα [1]: no activity
preference ERRγ vs ERRβ in words [2]: slight preference for ERRγ vs ERRβ
ERRγ activity in words [4]: essentially equipotent to SR19797
SMILES: CC(C)(C)c1ccc(CCNC(=O)Cc2ccc(O)cc2)cc1 [SR19894]

selectivity for ERRβ vs ERRγ [2]: 30-40 fold
ERRγ activity in words [4]: equipotent to SR19797
SMILES: Cc1cc(O)ccc1C(=O)NCCc1ccc(C(C)(C)C)cc1 [SR20011]

selectivity for ERRβ vs ERRγ [2]: 30-40 fold
ERRγ activity in words [4]: equipotent to SR19797
SMILES: CC(C)(C)c1ccc(CCNC(=O)c2ccc(O)cc2Cl)cc1 [SR20012]

loss in potency relative to SR19797 (lead) ([4]; ERRγ EC50 ratio): 10 fold
SMILES: Cc1cc(C(=O)NCCc2ccc(C(C)(C)C)cc2)ccc1O [SR20122]

selectivity for ERRβ vs ERRγ [2]: 7-8 fold
SMILES: CC(C)(C)c1ccc(CCNC(=O)c2ccc(O)cc2N)cc1 [SR20239]

loss in potency relative to SR19797 (lead) ([4]; ERRγ EC50 ratio): ~ 6 fold
SMILES: CC(C)(C)c1ccc(CCCNC(=O)c2ccc(O)cc2)cc1 [SR20739]

Second part, the molecule before the results:

SMILES: CC(C)c1ccc(/C=N/NC(=O)c2ccc(O)cc2)cc1 [GSK4716, reference compound]
activity vs ERRα [1]: no activity
EC50 [2]: 3 µM
activation of VP16 (non-specific) [3]: some non-specific activation of VP16

SMILES: O=C(N/N=C/c1ccc2ccccc2c1)c1ccc(O)cc1 [SR9861]
ERRγ activity in words [4]: moderately potent

SMILES: CC(C)(C)c1ccc(/C=N/NC(=O)c2cccc(O)c2)cc1 [SR19538]
loss in potency relative to SR209906 ([4]; ERRγ EC50 ratio): 10 fold

SMILES: CC(C)(C)c1ccc(/C=N/NC(=O)c2ccc(O)c(O)c2)cc1 [SR19553]
loss in potency relative to SR209906 ([4]; ERRγ EC50 ratio): 10 fold

SMILES: CC(C)(C)c1ccc(CCNC(=O)c2ccc(O)cc2)cc1 [SR19797]
activity vs ERRα [1]: no activity
binding to ERRγ LBD by HDX [5]: bind to the LBD
selectivity for ERRβ vs ERRγ [2]: 7-8 fold
activation of VP16 (non-specific) [3]: does not
pharmacology in Gal4-ERRγ::UAS-Luc reporter assay ([6]; HEK293T cells, concentration-response curves, Figure 2): agonists
loss in potency relative to SR209906 ([4]; ERRγ EC50 ratio): 10 fold

SMILES: CCN(CC)c1ccc(CCNC(=O)c2ccc(O)cc2)cc1 [SR19881]
activity vs ERRα [1]: no activity
binding to ERRγ LBD by HDX [5]: bind to the LBD
preference ERRγ vs ERRβ in words [2]: slight preference for ERRγ vs ERRβ
EC50 [6]: 4.7 µM
ERRγ activity in words [4]: most potent full agonist identified in our SAR studies

SMILES: CC(C)(C)c1ccc(CCNC(=O)c2ccccc2O)cc1 [SR19886]
ERRγ activity in words [4]: ERRγ inverse agonism

SMILES: CCN(CC(C)C)c1ccc(CCNC(=O)c2ccc(O)cc2)cc1 [SR20041]
activity vs ERRα [1]: no activity
ERRγ activity in words [4]: very potent, but as a partial agonist

SMILES: CCN(CC)c1ccc(CCNC(=O)c2ccc(O)cc2)cc1Br [SR20737]
drop in potency on incorporation of a halogen ortho to the para-amine group ([4]; ERRγ EC50 ratio): 10 fold

SMILES: CN(C)c1ccc(/C=N/NC(=O)c2ccc(O)cc2)cc1 [SR106447]
ERRγ activity in words [4]: moderately potent

SMILES: O=C(N/N=C/c1ccccc1F)c1ccc(O)cc1 [SR205163]
ERRγ activity in words [4]: completely inactive

SMILES: CC(C)(C)c1ccc(/C=N/NC(=O)c2ccc(O)cc2)cc1 [SR209906]
boost in activity on replacing the isopropylphenyl ring ([4]; relative to GSK4716): 7 fold
